Measurements reported in BindingDB's records for doi:10.1021/acschembio.6b00709 (Technical University of Munich, 2016).

Key:
[1] = target: T1, Ephrin type-A receptor 2 [596-900] (Homo sapiens, UniProt P29317); experiment: Kinobeads Competition Assay
T1 construct: 596-900
T1 sequence (P29317 whole entry): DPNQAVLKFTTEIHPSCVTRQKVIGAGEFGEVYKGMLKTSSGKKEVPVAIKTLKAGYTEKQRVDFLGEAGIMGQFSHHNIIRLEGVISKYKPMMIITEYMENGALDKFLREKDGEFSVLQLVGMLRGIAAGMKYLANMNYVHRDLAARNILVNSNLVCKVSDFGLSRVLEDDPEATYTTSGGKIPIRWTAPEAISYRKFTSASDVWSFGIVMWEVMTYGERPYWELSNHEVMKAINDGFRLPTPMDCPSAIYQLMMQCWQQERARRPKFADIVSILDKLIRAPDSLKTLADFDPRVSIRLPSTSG

[2] = target: T1, Ephrin type-A receptor 2 [596-900]; experiment: HotSpot Kinase Activity Assay
Excerpt: Refer to Reaction Biology Corps.

Row | SMILES | Kd [1] [nM] | IC50 [2] [nM]
1 | CNC(=O)c1nn(C)c2c1C(C)(C)Cc1cnc(Nc3ccc(N4CCN(C)CC4)cc3)nc1-2 [Milciclib] | 672 | 
2 | COc1cc(N2CCC(N3CCN(C)CC3)CC2)ccc1Nc1ncnc(Nc2ccccc2S(=O)(=O)C(C)C)n1 [ASP-3026] | 640 | 
3 | C[C@@H](NC(=O)c1ncnc(N)c1Cl)c1ncc(C(=O)Nc2cc(C(F)(F)F)c(Cl)cn2)s1 [MLN-2480] | 484 | 
4 | COc1cc(Nc2ncc3c(n2)-c2ccc(Cl)cc2C(c2c(F)cccc2OC)=NC3)ccc1C(=O)O [Alisertib] | 187 | 48
5 | CN1CCN(CCOc2cc(OC3CCOCC3)c3c(Nc4c(Cl)ccc5c4OCO5)ncnc3c2)CC1 | 338 | 
6 | CC(C)c1cc(CNc2nc(Nc3cc(C4CC4)[nH]n3)cc(N3CCN(C)CC3)n2)on1 [4-N-(5-cyclopropyl-1H-pyrazol-3-yl)-6-(4-methylpiperazin-1-yl)-2-N-[(3-propan-2-yl-1,2-oxazol-5-yl)methyl]pyrimidine-2,4-diamine] | 19 | 4
7 | CCS(=O)(=O)c1cccc(-c2cc(C(=O)NC3CCN(C)CC3)c(C)c3[nH]c4ncc(C)cc4c23)c1 [5-(3-ethylsulfonylphenyl)-3,8-dimethyl-N-(1-methylpiperidin-4-yl)-9H-pyrido[2,3-b]indole-7-carboxamide] | 198 | 4.8

Continued by falling Kd [1], values first:

Row | Kd [1] [nM] | IC50 [2] [nM] | SMILES
8 | 961 |  | COc1cccc(Nc2ncnn3ccc(CN4CC[C@@H](N)[C@H](O)C4)c23)c1 [BMS-690514]
9 | 869 |  | CNC(=O)c1cc(Oc2ccc(NC(=O)Nc3ccc(Cl)c(C(F)(F)F)c3)c(F)c2)ccn1
10 | 458 |  | COc1cc2c(Nc3ccc(Cl)c(Cl)c3F)ncnc2cc1OCC1C[C@@H]2CN(C)C[C@@H]2C1 (stereo partly drawn) [7-[[(3aS,6aR)-2-methyl-3,3a,4,5,6,6a-hexahydro-1H-cyclopenta[c]pyrrol-5-yl]methoxy]-N-(3,4-dichloro-2-fluorophenyl)-6-methoxyquinazolin-4-amine]
11 | 259 |  | COc1cc2nccc(Oc3ccc(NC(=O)Nc4cc(C)on4)c(Cl)c3)c2cc1OC [Tivozanib]
12 | 192 | 17 | Cc1ccc(NC(=O)c2ccc(CN3CC[C@H](N(C)C)C3)c(C(F)(F)F)c2)cc1Nc1ncc(-c2cncnc2)cn1 [4-[[(3S)-3-(dimethylamino)pyrrolidin-1-yl]methyl]-N-[4-methyl-3-[(5-pyrimidin-5-ylpyrimidin-2-yl)amino]phenyl]-3-(trifluoromethyl)benzamide]
